Among the data in US20230143604A1, “QW DOSING OF GIP RECEPTOR AGONIST PEPTIDE COMPOUNDS AND USES THEREOF” (TAKEDA PHARMACEUTICAL COMPANY LIMITED, priority 2020, published 2023) are solubility values, retold here.

Starred links: 1 amine or outer side, 2 acyl side, 3 side chain; linkers in the order of their positions; H or OH if unused. Non-standard residues stand in square brackets, D forms with d. Residues, ends and D or L forms follow the SMILES beside them. Groups on a side chain read outwards from the residue. *: point of attachment. C20 diacid = O=C(O)CCCCCCCCCCCCCCCCCCC(=O)*; C18 diacid = O=C(O)CCCCCCCCCCCCCCCCC(=O)*; γGlu = O=C(O)[C@H](CCC(=O)[*:2])N[*:1]; NMeY = CN[C@@H](Cc1ccc(O)cc1)C(=O)O; AEEA = NCCOCCOCC(=O)O; Aib = CC(C)(N)C(=O)O

A short description of the data set: Solubility in phosphate buffer pH 7.4. An outline of the steps:
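Solubility at pH 7.4 determined by stepwise addition of 200 mM phosphate buffer in 100 μL increments to 3 mg peptide, mixing briefly each time, until no insoluble material remained, then measured by liquid chromatography.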

[1] abbreviates: pH 7.4, aqueous buffer, pH 7.4 Phosphate Buffer - Solubility, 200 mM Phosphate buffer pH 7.4.
Setting [2] is: pH 7.4, solubility in phosphate buffer at pH 7.4, 200 mM phosphate buffer pH 7.4.

For `CC[C@H](C)[C@H](NC(=O)[C@H](Cc1ccccc1)NC(=O)[C@@H](NC(=O)CNC(=O)[C@H](CCC(=O)O)NC(=O)C(C)(C)NC(=O)[C@H](Cc1ccc(O)cc1)NC)[C@@H](C)O)C(=O)N[C@@H](CO)C(=O)N[C@@H](CC(=O)O)C(=O)N[C@@H](Cc1ccc(O)cc1)C(=O)N[C@@H](CO)C(=O)N[C@H](C(=O)NC(C)(C)C(=O)N[C@@H](CC(C)C)C(=O)N[C@@H](CC(=O)O)C(=O)N[C@@H](CCCNC(=N)N)C(=O)NC(C)(C)C(=O)N[C@@H](CCCCNC(=O)COCCOCCNC(=O)COCCOCCNC(=O)CC[C@H](NC(=O)CC[C@H](NC(=O)CCCCCCCCCCCCCCCCC(=O)O)C(=O)O)C(=O)O)C(=O)N[C@@H](CCC(N)=O)C(=O)NC(C)(C)C(=O)N[C@@H](CC(N)=O)C(=O)N[C@@H](Cc1ccccc1)C(=O)N[C@H](C(=O)N[C@@H](CC(N)=O)C(=O)N[C@@H](Cc1c[nH]c2ccccc12)C(=O)N[C@@H](CC(C)C)C(=O)N[C@@H](CC(C)C)C(=O)N[C@@H](C)C(=O)N[C@@H](CCC(N)=O)C(=O)N[C@@H](CO)C(=O)N1CCC[C@H]1C(=O)N[C@@H](CO)C(=O)N[C@@H](CO)C(=O)NCC(=O)N[C@@H](C)C(=O)N1CCC[C@H]1C(=O)N1CCC[C@H]1C(=O)N1CCC[C@H]1C(=O)N[C@@H](CO)C(N)=O)C(C)C)[C@@H](C)CC` [Compound 100] (H-[NMeY][Aib]EGTFISDYSI[Aib]LDR[Aib]K([AEEA-AEEA-γGlu-γGlu-C18 diacid])Q[Aib]NFVNWLLAQSPSSGAPPPS-NH2), the solubility by setting is: under setting [1], at least 60 mg/mL; under setting [2], at least 15 mg/mL.

As to `CC[C@H](C)[C@H](NC(=O)[C@H](Cc1ccccc1)NC(=O)[C@@H](NC(=O)CNC(=O)[C@H](CCC(=O)O)NC(=O)C(C)(C)NC(=O)[C@H](Cc1ccc(O)cc1)NC)[C@@H](C)O)C(=O)N[C@@H](CO)C(=O)N[C@@H](CC(=O)O)C(=O)N[C@@H](Cc1ccc(O)cc1)C(=O)N[C@@H](CO)C(=O)N[C@H](C(=O)NC(C)(C)C(=O)N[C@@H](CC(C)C)C(=O)N[C@@H](CC(=O)O)C(=O)N[C@@H](CCCNC(=N)N)C(=O)NC(C)(C)C(=O)N[C@@H](C)C(=O)N[C@@H](CCC(N)=O)C(=O)NC(C)(C)C(=O)N[C@@H](CCCCNC(=O)COCCOCCNC(=O)COCCOCCNC(=O)CC[C@H](NC(=O)CC[C@H](NC(=O)CCCCCCCCCCCCCCCCCCC(=O)O)C(=O)O)C(=O)O)C(=O)N[C@@H](Cc1ccccc1)C(=O)N[C@H](C(=O)N[C@@H](CC(N)=O)C(=O)N[C@@H](Cc1c[nH]c2ccccc12)C(=O)N[C@@H](CC(C)C)C(=O)N[C@@H](CC(C)C)C(=O)N[C@@H](C)C(=O)N[C@@H](CCC(N)=O)C(=O)N[C@@H](CCCNC(=N)N)C(=O)N1CCC[C@H]1C(=O)N[C@@H](CO)C(=O)N[C@@H](CO)C(=O)NCC(=O)N[C@@H](C)C(=O)N1CCC[C@H]1C(=O)N1CCC[C@H]1C(=O)N1CCC[C@H]1C(=O)N[C@@H](CO)C(N)=O)C(C)C)[C@@H](C)CC` [Compound 101] (H-[NMeY][Aib]EGTFISDYSI[Aib]LDR[Aib]AQ[Aib]K([AEEA-AEEA-γGlu-γGlu-C20 diacid])FVNWLLAQRPSSGAPPPS-NH2), the solubility runs as follows: under setting [1], at least 60 mg/mL; under setting [2], at least 15 mg/mL.

On to `CC[C@H](C)[C@H](NC(=O)[C@H](Cc1ccccc1)NC(=O)[C@@H](NC(=O)CNC(=O)[C@H](CCC(=O)O)NC(=O)C(C)(C)NC(=O)[C@H](Cc1ccc(O)cc1)NC)[C@@H](C)O)C(=O)N[C@@H](CO)C(=O)N[C@@H](CC(=O)O)C(=O)N[C@@H](Cc1ccc(O)cc1)C(=O)N[C@@H](CO)C(=O)N[C@H](C(=O)NC(C)(C)C(=O)N[C@@H](CC(C)C)C(=O)N[C@@H](CC(=O)O)C(=O)N[C@@H](CCCNC(=N)N)C(=O)NC(C)(C)C(=O)N[C@@H](C)C(=O)N[C@@H](C)C(=O)NC(C)(C)C(=O)N[C@@H](CCCCNC(=O)COCCOCCNC(=O)COCCOCCNC(=O)CC[C@H](NC(=O)CC[C@H](NC(=O)CCCCCCCCCCCCCCCCC(=O)O)C(=O)O)C(=O)O)C(=O)N[C@@H](Cc1ccccc1)C(=O)N[C@H](C(=O)N[C@@H](CC(N)=O)C(=O)N[C@@H](Cc1c[nH]c2ccccc12)C(=O)N[C@@H](CC(C)C)C(=O)N[C@@H](CC(C)C)C(=O)N[C@@H](C)C(=O)N[C@@H](CCC(N)=O)C(=O)N[C@@H](CCCNC(=N)N)C(=O)N1CCC[C@H]1C(=O)N[C@@H](CO)C(=O)N[C@@H](CO)C(=O)NCC(=O)N[C@@H](C)C(=O)N1CCC[C@H]1C(=O)N1CCC[C@H]1C(=O)N1CCC[C@H]1C(=O)N[C@@H](CO)C(N)=O)C(C)C)[C@@H](C)CC` [Compound 106] (H-[NMeY][Aib]EGTFISDYSI[Aib]LDR[Aib]AA[Aib]K([AEEA-AEEA-γGlu-γGlu-C18 diacid])FVNWLLAQRPSSGAPPPS-NH2), for which the solubility under setting [1] is at least 30 mg/mL and the solubility under setting [2] is at least 15 mg/mL.

In the case of `CC[C@H](C)[C@H](NC(=O)[C@H](Cc1ccccc1)NC(=O)[C@@H](NC(=O)CNC(=O)[C@H](CCC(=O)O)NC(=O)C(C)(C)NC(=O)[C@H](Cc1ccc(O)cc1)NC)[C@@H](C)O)C(=O)N[C@@H](CO)C(=O)N[C@@H](CC(=O)O)C(=O)N[C@@H](Cc1ccc(O)cc1)C(=O)N[C@@H](CO)C(=O)N[C@H](C(=O)NC(C)(C)C(=O)N[C@@H](CC(C)C)C(=O)N[C@@H](CC(=O)O)C(=O)N[C@@H](CCCNC(=N)N)C(=O)NC(C)(C)C(=O)N[C@@H](C)C(=O)N[C@@H](C)C(=O)NC(C)(C)C(=O)N[C@@H](CCCCNC(=O)COCCOCCNC(=O)COCCOCCNC(=O)CC[C@H](NC(=O)CC[C@H](NC(=O)CCCCCCCCCCCCCCCCC(=O)O)C(=O)O)C(=O)O)C(=O)N[C@@H](Cc1ccccc1)C(=O)N[C@H](C(=O)N[C@@H](CC(N)=O)C(=O)N[C@@H](Cc1c[nH]c2ccccc12)C(=O)N[C@@H](CC(C)C)C(=O)N[C@@H](CC(C)C)C(=O)N[C@@H](C)C(=O)N[C@@H](CCC(N)=O)C(=O)N[C@@H](CO)C(=O)N1CCC[C@H]1C(=O)N[C@@H](CO)C(=O)N[C@@H](CO)C(=O)NCC(=O)N[C@@H](C)C(=O)N1CCC[C@H]1C(=O)N1CCC[C@H]1C(=O)N1CCC[C@H]1C(=O)N[C@@H](CO)C(N)=O)C(C)C)[C@@H](C)CC` [Compound 107] (H-[NMeY][Aib]EGTFISDYSI[Aib]LDR[Aib]AA[Aib]K([AEEA-AEEA-γGlu-γGlu-C18 diacid])FVNWLLAQSPSSGAPPPS-NH2), the solubility under setting [1] is at least 60 mg/mL and the solubility under setting [2] was at least 15 mg/mL.

As to `CC[C@H](C)[C@H](NC(=O)[C@H](Cc1ccccc1)NC(=O)[C@@H](NC(=O)CNC(=O)[C@H](CCC(=O)O)NC(=O)C(C)(C)NC(=O)[C@H](Cc1ccc(O)cc1)NC)[C@@H](C)O)C(=O)N[C@@H](CO)C(=O)N[C@@H](CC(=O)O)C(=O)N[C@@H](Cc1ccc(O)cc1)C(=O)N[C@@H](CO)C(=O)N[C@H](C(=O)NC(C)(C)C(=O)N[C@@H](CC(C)C)C(=O)N[C@@H](CC(=O)O)C(=O)N[C@@H](CCCNC(=N)N)C(=O)NC(C)(C)C(=O)N[C@@H](CCCCNC(=O)COCCOCCNC(=O)COCCOCCNC(=O)CC[C@H](NC(=O)CC[C@H](NC(=O)CCCCCCCCCCCCCCCCC(=O)O)C(=O)O)C(=O)O)C(=O)N[C@@H](C)C(=O)NC(C)(C)C(=O)N[C@@H](CC(N)=O)C(=O)N[C@@H](Cc1ccccc1)C(=O)N[C@H](C(=O)N[C@@H](CC(N)=O)C(=O)N[C@@H](Cc1c[nH]c2ccccc12)C(=O)N[C@@H](CC(C)C)C(=O)N[C@@H](CC(C)C)C(=O)N[C@@H](C)C(=O)N[C@@H](CCC(N)=O)C(=O)N[C@@H](CO)C(=O)N1CCC[C@H]1C(=O)N[C@@H](CO)C(=O)N[C@@H](CO)C(=O)NCC(=O)N[C@@H](C)C(=O)N1CCC[C@H]1C(=O)N1CCC[C@H]1C(=O)N1CCC[C@H]1C(=O)N[C@@H](CO)C(N)=O)C(C)C)[C@@H](C)CC` [Compound 109] (H-[NMeY][Aib]EGTFISDYSI[Aib]LDR[Aib]K([AEEA-AEEA-γGlu-γGlu-C18 diacid])A[Aib]NFVNWLLAQSPSSGAPPPS-NH2), the solubility is, setting by setting: under setting [1], at least 60 mg/mL; under setting [2], at least 15 mg/mL.

Compound `CC[C@H](C)[C@H](NC(=O)[C@H](Cc1ccccc1)NC(=O)[C@@H](NC(=O)CNC(=O)[C@H](CCC(=O)O)NC(=O)C(C)(C)NC(=O)[C@H](Cc1ccc(O)cc1)NC)[C@@H](C)O)C(=O)N[C@@H](CO)C(=O)N[C@@H](CC(=O)O)C(=O)N[C@@H](Cc1ccc(O)cc1)C(=O)N[C@@H](CO)C(=O)N[C@H](C(=O)NC(C)(C)C(=O)N[C@@H](CC(C)C)C(=O)N[C@@H](CC(=O)O)C(=O)N[C@@H](CCCNC(=N)N)C(=O)NC(C)(C)C(=O)N[C@@H](C)C(=O)N[C@@H](CCC(N)=O)C(=O)NC(C)(C)C(=O)N[C@@H](CCCCNC(=O)COCCOCCNC(=O)COCCOCCNC(=O)CC[C@H](NC(=O)CC[C@H](NC(=O)CCCCCCCCCCCCCCCCC(=O)O)C(=O)O)C(=O)O)C(=O)N[C@@H](Cc1ccccc1)C(=O)N[C@H](C(=O)N[C@@H](CCC(=O)O)C(=O)N[C@@H](Cc1c[nH]c2ccccc12)C(=O)N[C@@H](CC(C)C)C(=O)N[C@@H](CC(C)C)C(=O)N[C@@H](C)C(=O)N[C@@H](CCC(N)=O)C(=O)N[C@@H](CCCCN)C(=O)NCC(=O)O)C(C)C)[C@@H](C)CC` [Compound 110] (H-[NMeY][Aib]EGTFISDYSI[Aib]LDR[Aib]AQ[Aib]K([AEEA-AEEA-γGlu-γGlu-C18 diacid])FVEWLLAQKG-OH) showed a solubility (pH 7.4) of at least 15 mg/mL and a solubility (pH 7.4, aqueous buffer) of at least 60 mg/mL.
